# Assay results published in US12558366B2, “Bacterial DNA gyrase inhibitors and methods of use thereof” (THE FLORIDA INTERNATIONAL UNIVERSITY BOARD OF TRUSTEES, priority 2021, dated 2026).
# Read-outs that look alike come from different tables or passages of the source.
# Assays:
# E. coli DNA gyrase [1] = molecular target: T1, E. coli DNA gyrase (Escherichia coli, UniProt P0AES4+P0AES6); assay: E. coli DNA gyrase inhibition (agarose gel-based and/or SDFQ-based, not specified per value); type: biochemical
# T1 sequence (P0AES4 whole entry, one chain of several): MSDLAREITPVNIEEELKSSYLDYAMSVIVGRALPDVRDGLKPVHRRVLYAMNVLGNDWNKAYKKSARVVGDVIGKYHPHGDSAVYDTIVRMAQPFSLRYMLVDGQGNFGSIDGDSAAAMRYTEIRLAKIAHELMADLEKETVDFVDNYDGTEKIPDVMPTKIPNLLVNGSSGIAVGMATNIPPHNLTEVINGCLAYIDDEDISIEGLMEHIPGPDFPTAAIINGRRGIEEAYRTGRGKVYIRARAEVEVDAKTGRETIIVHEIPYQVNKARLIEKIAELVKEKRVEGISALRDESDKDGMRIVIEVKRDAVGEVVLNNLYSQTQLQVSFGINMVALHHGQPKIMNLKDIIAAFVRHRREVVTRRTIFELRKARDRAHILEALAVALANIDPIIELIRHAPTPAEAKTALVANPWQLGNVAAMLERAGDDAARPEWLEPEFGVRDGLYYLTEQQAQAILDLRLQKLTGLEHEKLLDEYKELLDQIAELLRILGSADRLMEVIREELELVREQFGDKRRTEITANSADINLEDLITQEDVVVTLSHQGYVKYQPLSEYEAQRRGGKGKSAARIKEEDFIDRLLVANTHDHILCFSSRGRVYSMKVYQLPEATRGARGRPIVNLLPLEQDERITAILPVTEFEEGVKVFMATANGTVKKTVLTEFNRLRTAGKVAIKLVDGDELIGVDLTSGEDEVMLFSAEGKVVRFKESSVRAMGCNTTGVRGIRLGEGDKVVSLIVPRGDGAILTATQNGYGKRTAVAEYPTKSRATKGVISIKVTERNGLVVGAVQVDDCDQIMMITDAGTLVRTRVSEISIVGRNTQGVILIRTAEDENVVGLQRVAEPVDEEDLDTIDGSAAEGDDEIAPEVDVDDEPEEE
# E. coli DNA gyrase [2] = molecular target: T1, E. coli DNA gyrase; assay: Agarose gel-based DNA gyrase inhibition assays; type: biochemical
# Description: 100 ng of DNA gyrase was used to supercoil the rx pAB1 in the presence of different concentrations of a gyrase inhibitor. […] Samples were analyzed by electrophoresis in 1% w/v agarose gels followed by ethidium bromide staining and photographed under UV light.
# E. coli (ATCC 25922) = assay: Minimum inhibitory concentration, E. coli; type: cell-based; conditions: Escherichia coli, ATCC25922, read-out: Minimum Inhibitory Concentration E. coli
# Description: (§1) Antibacterial minimum inhibitory concentrations (MICs) were obtained from three independent experiments using broth microdilution methods in 96-well plates according to Clinical and Laboratory Standards Institute guidelines. Cells were culture from singles colonies in MHIIB medium for 24 h at 37° C. in agitation (200 RPM). The cultures were then diluted using the same media to reach an OD600 of 0.1. Then, 50 μL of the diluted cultures were added to the plates holding 50 μL of serially diluted compounds in MHIIB. The plates were incubated at 37° C. for 20 h. The starting inoculum was fixated to 10^5 colony-forming units per ml.
# E. coli imp = assay: microbe, parasite or virus in culture; type: cell-based; conditions: Escherichia coli
# Description: as §1
# B. subtilis (ATCC 6633) = assay: Minimum inhibitory concentration, B. subtilis; type: cell-based; conditions: Bacillus subtilis, ATCC6633; Tables 3a-3c
# Description: as §1
# Mtb = Mtb inhibition (antibacterial activity); type: cell-based, Mycobacterium tuberculosis; set-up: % Mtb inhibition: concentration or dose not given beside the values; conditions: for % Mtb inhibition: Table 5
# DNA = DNA binding, intercalation and photo-induced crosslinking
# S. aureus (ATCC 14775) = assay: Minimum inhibitory concentration, S. aureus; type: cell-based
# Description: as §1
# MRSA (ATCC BAA44) = assay: microbe, parasite or virus in culture; type: cell-based, S. aureus
# Description: as §1
# [3] = Table 2 values, read-out: IC50 ( ≤15 μM) IC50
# [4] = read-out: Minimum Inhibitory Concentration E. coli imp
compound,measurement,setting,value
Cc1c2cc(O)c(=O)cc-2oc2cc(O)c(O)cc12 [Compound 75],IC50,E. coli DNA gyrase [1]; [3],5.28 µM
"CN1C[C@H](CNC(=O)OCc2ccccc2)C[C@@H]2c3cccc4c3c(cn4C)C[C@H]21 [Metergoline, reference compound]",inhibition of gyrase activities,E. coli DNA gyrase [2]; at 100 and 200 μM,inhibits gyrase activities
COc1cc2ccccc2cc1C(=O)NC(=S)Nc1ccc(C(=O)O)cc1 [Compound 72],IC50,E. coli DNA gyrase [1]; [3],12.4 µM
"O=C1OC2(c3ccccc31)c1cc(I)c(O)c(I)c1Oc1c2cc(I)c(O)c1I [Compound 253, Erythrosin B]",IC50,E. coli DNA gyrase [1]; [3],3.12 µM
Cc1c(CC(=O)O)c(=O)oc2c(C)c3occ(-c4ccc(Br)cc4)c3cc12 [Compound 117],MIC,E. coli (ATCC 25922),> 200 µM
same,MIC,E. coli imp; [4],> 200 µM
same,MIC,B. subtilis (ATCC 6633),> 200 µM
same,% Mtb inhibition,Mtb,24.7%
CN(C)c1ccc2cc3ccc(N(C)C)cc3nc2c1 [Compound 249],DNA intercalator,DNA,DNA intercalators
"O=c1ccc2cc3ccoc3cc2o1 [psoralen, reference compound]",inhibition of E. coli DNA gyrase activities,E. coli DNA gyrase [1],not a gyrase inhibitor
O=C(O)C(Cc1ccccc1)N1C(=O)/C(=C\C=C\c2ccco2)SC1=S (centres unmarked) [Compound 157],IC50,E. coli DNA gyrase [1]; [3],10 µM
same,MIC,E. coli imp; [4],100 µM
O=C(O)CCCCCN1C(=O)/C(=C\c2ccc(-c3ccc(Cl)cc3)o2)SC1=S [Compound 36],IC50,E. coli DNA gyrase [1]; [3],7.42 µM
CC(C)(CS(=O)(=O)[O-])NC(=O)CC[N+](C)(C)CCO [Compound 42],IC50,E. coli DNA gyrase [1]; [3],2.18 µM
CN(C)CCNC(=O)c1cccc2nc3cccc(F)c3nc12.Cl [Compound 241],DNA intercalator,DNA,DNA intercalators
CCCCCCCCOC(=O)c1cc(O)c(O)c(O)c1 [Octyl gallate],MIC,E. coli imp; read-out: MIC (μg/ml) E. coli imp,14.1 µg/mL
O=C1/C(=C\c2ccc(O)c([N+](=O)[O-])c2)SC(=S)N1Cc1ccccc1 [Compound 192],IC50,E. coli DNA gyrase [1]; [3],8 µM
COc1ccc2c(c1)/c(=C\c1ccc(N(C)C)cc1)c1cc(-c3ccccc3)[n+](C)n12.O=S(=O)([O-])C(F)(F)F [Compound 237],DNA intercalator,DNA,DNA intercalators
NN=C1c2ccccc2C(=O)C1C(=O)C(c1ccccc1)c1ccccc1 (centres unmarked) [Compound 211],inhibition of E. coli DNA gyrase activities,E. coli DNA gyrase [2]; 50 μM of compounds,inhibited
same,inhibition of E. coli DNA gyrase activities,E. coli DNA gyrase [2]; 200 μM of compounds,completely inhibited
same,IC50,E. coli DNA gyrase [1],50 to 200 µM
Nc1ccc2cc3ccc(N)cc3nc2c1 [Compound 246],DNA intercalator,DNA,DNA intercalators
O=C(/C=C/c1ccco1)Nc1cccc2cccnc12 [Compound 164],MIC,E. coli imp; [4],100 µM
N#C/C(=C\c1coc2ccc(O)cc2c1=O)C(=O)/N=c1\[nH]c2ccccc2s1 [Compound 165],IC50,E. coli DNA gyrase [1]; [3],6.25 µM
Cc1c(CCC(=O)O)c(=O)oc2c(C)c3occ(-c4ccc(F)cc4)c3cc12 [Compound 123],MIC,E. coli (ATCC 25922),> 200 µM
same,MIC,E. coli imp; [4],> 200 µM
same,% Mtb inhibition,Mtb,31.8%
O=C1NC(=S)SC1=Cc1cc(Cl)cc(Cl)c1O [Compound 207],inhibition of E. coli DNA gyrase activities,E. coli DNA gyrase [2]; 50 μM of compounds,inhibited
same,inhibition of E. coli DNA gyrase activities,E. coli DNA gyrase [2]; 200 μM of compounds,completely inhibited
same,IC50,E. coli DNA gyrase [1],50 to 200 µM
Nc1c2ccccc2nc2ccccc12 [Compound 247],DNA intercalator,DNA,DNA intercalators
Brc1ccc2c(c1)-c1ccccc1C1=NCCN12 [Compound 217],DNA intercalator,DNA,DNA intercalators
O=C(NN1C(=O)/C(=C\C=C\c2ccco2)SC1=S)c1ccccc1O [Compound 180],MIC,E. coli imp; [4],100 µM
COc1cccc2nc3c(C(=O)NCCN(C)C)cccc3cc12.Cl [Compound 240],DNA intercalator,DNA,DNA intercalators
C[n+]1c(-c2ccc(C=NNC(=O)c3ccc(C(=O)NN=Cc4ccc(-c5cn6ccccc6[n+]5C)cc4)cc3)cc2)cn2ccccc21 [Compound 229],IC50,E. coli DNA gyrase [1],25 to 50 µM
O=[N+]([O-])c1cc(/C=N/Nc2nc3ccccc3[nH]2)c(O)cc1O [Compound 159],IC50,E. coli DNA gyrase [1]; [3],6.25 µM
CN1/C(=C/c2cc[n+](C)c3ccccc23)Sc2ccccc21.Cc1ccc(S(=O)(=O)[O-])cc1 [Compound 248],DNA intercalator,DNA,DNA intercalators
O=C(O)C(c1ccccc1)N1C(=O)/C(=C\c2ccc(-c3cccc(Cl)c3)o2)SC1=S (centres unmarked) [Compound 176],IC50,E. coli DNA gyrase [1]; [3],2 µM
Cc1cc(NN=Cc2ccc([N+](=O)[O-])o2)nc2ccccc12 [Compound 134],MIC,"S. aureus (ATCC 14775); Staphylococcus aureus, ATCC14775, Tables 3a-3c, read-out: Minimum Inhibitory Concentration S. aureus",200 µM
same,MIC,"MRSA (ATCC BAA44); Staphylococcus aureus, read-out: Minimum Inhibitory Concentration S. aureus MRSA",200 µM
O=C1Nc2ccc(Br)cc2C1=NNc1ccc(C(=O)O)cc1 [Compound 111],inhibition of E. coli DNA gyrase activities,E. coli DNA gyrase [2]; 50 μM of compounds,completely inhibited
same,MIC,B. subtilis (ATCC 6633),100 µM
O=C(O)c1ccc(/N=N/C2C(O)=Nc3ccc(F)cc32)cc1 (centres unmarked) [Compound 127],activity against Mtb,Mtb,Mtb active hits
Cc1c(CCC(=O)O)c(=O)oc2cc3occ(-c4ccc(Cl)cc4)c3cc12 [Compound 25],IC50,E. coli DNA gyrase [1]; [3],10.6 µM
same,MIC,E. coli imp; [4],25 µM
same,MIC,B. subtilis (ATCC 6633),25 µM
same,% Mtb inhibition,Mtb,0.8%
Cc1c(CCC(=O)O)c(=O)oc2c(C)c3occ(-c4ccc(N5CCCC5)cc4)c3cc12 [Compound 125],growth inhibition of S. aureus,S. aureus (ATCC 14775),did not inhibit the growth
same,growth inhibition of MRSA,MRSA (ATCC BAA44),did not inhibit the growth
same,% Mtb inhibition,Mtb,10.2%
O=C(O)c1cccc(-c2ccc(/C=c3/sc4nc5ccccc5n4c3=O)o2)c1 [Compound 47],IC50,E. coli DNA gyrase [1]; [3],1.87 µM
same,activity against Mtb,Mtb,Mtb active hits
Cc1cccc2c1N=C(O)C2/N=N/c1ccc(C(=O)O)cc1 (centres unmarked) [Compound 128],activity against Mtb,Mtb,Mtb active hits
CN(C)c1ccc(/C=c2\c3ccccc3n3c2cc(-c2ccccc2)[n+]3C)cc1 [Compound 236],DNA intercalator,DNA,DNA intercalator
CNC(=O)[C@H]1O[C@@H](n2cnc3c(NCc4cccc(I)c4)nc(Cl)nc32)[C@H](O)[C@@H]1O [Compound 76],IC50,E. coli DNA gyrase [1]; [3],2.53 µM
Cc1c(CCC(=O)O)c(=O)oc2c(C)c3occ(-c4ccccc4)c3cc12 [Compound 121],inhibition of E. coli DNA gyrase activities,E. coli DNA gyrase [2]; 50 μM of compounds,completely inhibited
same,MIC,E. coli (ATCC 25922),> 200 µM
same,MIC,E. coli imp; [4],100 µM
same,% Mtb inhibition,Mtb,36.7%
Cc1cccc2c1N=C(O)C2=NNc1ccc(S(C)(=O)=O)cc1 [Compound 109],inhibition of E. coli DNA gyrase activities,E. coli DNA gyrase [2]; 50 μM of compounds,completely inhibited
CCOC(=O)c1cc2c(=Cc3ccc(N(C)C)cc3)c3ccccc3n2[n+]1C.O=S(=O)([O-])C(F)(F)F [Compound 239],DNA intercalator,DNA,DNA intercalators
"mithramycin [Compound 225, reference compound]",inhibition of E. coli DNA gyrase activities,E. coli DNA gyrase [2]; 50 μM of compounds,completely inhibited
same,inhibition of E. coli DNA gyrase activities,E. coli DNA gyrase [2]; 200 μM of compounds,completely inhibited
same,inhibition of E. coli DNA gyrase activities,E. coli DNA gyrase [1],strongly inhibited
CSc1nc(SCC(=O)O)c2sc3nc(-c4ccccc4)c4c(c3c2n1)CCC4 [Compound 19],IC50,E. coli DNA gyrase [1]; [3],3.55 µM
same,activity against Mtb,Mtb,Mtb active hits
O=C(O)CCN1C(=O)/C(=C/c2ccc(-c3nc4ccccc4s3)o2)SC1=S [Compound 27],IC50,E. coli DNA gyrase [1]; [3],1.74 µM
COc1cc(/C=N/N=c2\[nH]c3ccccc3s2)cc([N+](=O)[O-])c1O [Compound 178],IC50,E. coli DNA gyrase [1]; [3],1.56 µM
same,activity against Mtb,Mtb,Mtb active hits
Cc1cc(C)c2sc(NC(=O)C3CC3)nc2c1 [Compound 73],IC50,E. coli DNA gyrase [1]; [3],7.86 µM
CCOc1ccc2nc3cc(N)ccc3c(N)c2c1 [Compound 257],DNA intercalator,DNA,DNA intercalators
O=C(Nc1cccc(C2=NCCN2)c1)Nc1cccc(C2=NCCN2)c1 [Compound 79],inhibition of E. coli DNA gyrase activities,E. coli DNA gyrase [2]; 200 μM of compounds,completely inhibited
same,MIC,E. coli imp; [4],50 µM
CSC1SC2C(=O)N(C)C(C(C)C)C(=O)OCC(NC(=O)c3cnc4ccccc4n3)C(=O)NC(C)C(=O)N(C)C1C(=O)N(C)C(C(C)C)C(=O)OCC(NC(=O)c1cnc3ccccc3n1)C(=O)NC(C)C(=O)N2C (centres unmarked) [Compound 258],DNA intercalator,DNA,DNA intercalators
"Cc1cc(C)c2c(c1)C(=NNc1ccc(C(=O)O)cc1)C(O)=N2 [Compound 9, 4-[2-(5,7-Dimethyl-2-oxoindol-3-yl)hydrazinyl]benzoic acid]",IC50,E. coli DNA gyrase [1]; [3],1.69 µM
same,growth inhibition of S. aureus,S. aureus (ATCC 14775),strongly inhibited the growth
same,growth inhibition of MRSA,MRSA (ATCC BAA44),strongly inhibited the growth
